Patent US11806393B2, “Flavivirus peptide sequences, epitopes, and methods and uses thereof” (priority 2017, dated 2023)

Tests used:
Format in all cases: cell-based, mouse
[1] = test system: CD8+ T cells; experiment: IFNγ ELISPOT, ZIKV-infected Ifnar-/- HLA-B*0702 transgenic mice; conditions: HLA-B*0702 mice; for SFC/10^6 CD8+ T cells, FSS13025: 7 days after 1×10^2 FFU ZIKV FSS13025; for SFC/10^6 CD8+ T cells, MR766: 7 days after 1×10^2 FFU ZIKV MR766; for immunodominance in IFNγ ELISPOT: immunodominant: >500 SFCs/10^6 CD8+ T cells, shared by both ZIKV strains
Experimental: (§1) Two ZIKV strains, MR766 (Uganda, 1947) and FSS13025 (Cambodia, 2010), were obtained from the World Reference Center for Emerging Viruses and Arboviruses (WRCEVA). The mouse-adapted DENV2 strain S221 is a triple-plaque purified clone derived from DENV2 D2S1038. Both ZIKV and DENV2 were amplified in C6/36 mosquito cells, and viral titers were measured using baby hamster kidney (BHK)-21 cell-based focus forming assay (FFA). For epitope screening, 5-week old mice (female or male) were infected retro-orbitally (R.O.) with either 1×102 FFU of ZIKV FSS13025 or ZIKV MR766, or 2×10^4 FFU of DENV2 S221 in 200 μl 10% FBS/PBS. Seven days after infection, CD8^+ T cells were isolated from splenocytes and used for ELISPOT assay, while the splenocytes were directly used for ICS assay. Additionally, 5-week old mice were inoculated I.P. with 2×10^3 FFU of DENV2 S221 for 4 weeks.
(§2) CD8^+ T cells were isolated from splenocytes using magnetic bead positive selection (Miltenyi Biotec, Germany) 7 days after virus infection. 2×10^5 CD8^+ T cells were stimulated with 1×10^5 LPS-blasts loaded with 10 μg of individual peptide in 96-well flat-bottom plates (IMMOBILON™-P; Millipore, Bedford, Mass.) that were coated with anti-IFNγ mAb (clone AN18; Mabtech, Stockholm, Sweden) in triplicate. Concanavalin A (ConA) was used as positive control. After 20 hours of incubation, biotinylated anti-mouse IFNγ mAb (R4-6A2; Mabtech), followed by ABC peroxidase (Vector Laboratories, Burlingame, Calif., USA) and then 3-amino-9-ethylcarbazole (Sigma-Aldrich, St. Louis, Mo., USA) were added into the wells. […] A peptide inducing a magnitude of >500 SFCs/10^6 CD8^+ T cells was considered as an immunodominant peptide.
Two independent experiments performed in triplicate were averaged and the error bars represent the SEM. The data are expressed as the mean number of spot forming cells (SFC) per 10^6 CD8^+ T cells. The criteria for positivity were net SFC per 10^6 cells of >20, and a stimulation index of >2.0 when compared with the negative control. Dotted lines represent the cutoff value. * Indicates a positive response. […] ConA denotes Concanavalin A.

[2] = test system: CD44+CD62L- CD8+ T cells; experiment: ICS, peptide-immunized Ifnar-/- HLA-B*0702 mice challenged with ZIKV; conditions: day 3 after ZIKV challenge; for percentage of IFNγ-producing cells among antigen experienced (CD44+CD62L-) CD8+ T cells: mice immunized with the 3 ZIKV immunodominant epitopes
Source text: Two HLA-B*0702-binding ZIKV-specific peptides (FSS-NS2A133-141(SEQ ID NO: 41) and FSS/MR766-NS2B68-75 (SEQ ID NO: 45)) and four ZIKV/DENV cross-reactive peptides (FSS/MR766-NS4B426-435 (SEQ ID NO: 60), FSS/MR766-NS2A75-84 (SEQ ID NO: 39), FSS/MR766-NS3206-215 (SEQ ID NO: 47), and FSS/MR766-NS3574-582 (SEQ ID NO: 52)) were chosen for synthesis. Five HLA-A*0101-binding peptides (FSS/MR-E159-167 (SEQ ID NO: 70), FSS/MR-E195-203 (SEQ ID NO: 71), FSS/MR-NS123-31 (SEQ ID NO: 74), FSS/MR-NS4B231-239 (SEQ ID NO: 77), and FSS/MR-NS5509-517 (SEQ ID NO: 79)) were chosen for synthesis. Mice (both female and male; 5-6 weeks of age) were immunized subcutaneously with a mixture of HCV helper peptide (100 μg/mouse) and 3 or 4 HLA-B*0702-binding peptides (50 μg/peptide/mouse) emulsified in Complete Freund's Adjuvant (CFA). Mock group mice received the same immunization strategy but without any ZIKV-specific or ZIKV/DENV cross-reactive peptide. On the 21st day, mice were boosted with the same peptide mixtures emulsified in Incomplete Freund's Adjuvant (IFA). […] Three days post ZIKV infection mice were sacrificed, and serum and spleen were harvested. The splenocytes were used for ICS assay. After cardiac perfusion with PBS, brain was harvested. The levels of infectious ZIKV in serum and brain were measured using FFA.
(§3) Spleens were harvested from virus-infected, mock-immunized, or peptide-immunized mice. 1×10^6 splenocytes were plated in each well of 96-well U-bottom plates and stimulated with individual peptide (10 μg crude peptide or 1 μg pure peptide per well) for 6 hours. Five hours before the end of incubation, Brefeldin A (GolgiPlug; BD Biosciences) and PE-conjugated anti CD107a mAb (clone 1D4B, eBioscience) were added to the cells. Splenocytes stimulated with PMA-ionomycin were used as the positive control, while cells without any stimulation were the negative control. […] Samples were run using an LSR™ II (BD Biosciences) and analyzed using FLOWJO™ software X 10.0.7 (Tree Star, Ashland, Oreg.).
Peptide groups received corresponding peptide immunizations as described in Materials and Methods. […] CD3^+CD8^+CD44^+CD62L− T cells were gated and the percentages of IFNγ^+ and/or TNFα^+ cells in a representative mouse from mock (FIG. 12A) and peptide (FIG. 12B) groups were determined by ICS. The levels of infectious ZIKV in sera and brains were measured via FFA. Data were expressed as mean±SEM. *, P<0.05; **, P<0.01; ***, P<0.001. Two-tailed Mann-Whitney test.

[3] = test system: CD3+CD8+ T cells; experiment: IFNγ ICS, ZIKV-infected Ifnar-/- HLA-B*0702 transgenic mice; conditions: for % IFNγ+ CD8+ T cells, FSS13025 / % IFNγ+ CD8+ T cells, MR766: HLA-B*0702 mice; for % IFNγ+ CD8+ T cells, FSS13025: 7 days after ZIKV FSS13025, ICS; for % IFNγ+ CD8+ T cells, MR766: 7 days after ZIKV MR766, ICS
Experimental: as §1, §3
Data represent the average of two independent experiments and are expressed as mean±SEM. *, P<0.05; **, P<0.01; Two-tailed Mann-Whitney test. P/I denotes PMA/ionomycin.

[4] = test system: CD8+ T cells; experiment: IFNγ ELISPOT, DENV2 S221-infected Ifnar-/- HLA-B*0702 transgenic mice; conditions: HLA-B*0702 mice, 7 days after 2×10^4 FFU DENV2 S221
Experimental: as §1, §2
(§4) The following results are with respect to FIG. 14A and FIG. 14B, where Ifnar^−/− HLA-B*0702 transgenic mice were infected R.O. with 2×10^4 FFU of DENV2 strain S221 for 7 days. CD8^+ T cells isolated from splenocytes were stimulated with each of the 37 ZIKV epitopes identified via IFNγELISPOT to perform (FIG. 14A) IFNγELISPOT and (FIG. 14B) ICS assay. Data represent the average of two independent IFNγELISPOT experiments and two independent ICS experiments (n=7 mice) and are expressed as mean±SEM. Dotted line corresponds to the cutoff value. *, P<0.05.

[5] = test system: CD8+ T cells; experiment: IFNγ ICS, DENV2 S221-infected Ifnar-/- HLA-B*0702 transgenic mice; conditions: HLA-B*0702 mice; for % IFNγ+ CD8+ T cells, S221: 7 days after DENV2 S221, ICS; for ZIKV/DENV cross-reactivity in DENV2-infected mice (IFNγ ELISPOT and IFNγ ICS): DENV2 S221, 7 days
Experimental: as §1, §3, §4

[6] = test system: CD8+ T cells; experiment: ICS, DENV2-immune Ifnar-/- HLA-B*0702 mice challenged with ZIKV FSS13025; conditions: day 3 after ZIKV FSS13025 challenge
Experimental: as §1
Spleens were harvested from virus-infected, mock-immunized, or peptide-immunized mice. 1×10^6 splenocytes were plated in each well of 96-well U-bottom plates and stimulated with individual peptide (10 μg crude peptide or 1 μg pure peptide per well) for 6 hours. Five hours before the end of incubation, Brefeldin A (GolgiPlug; BD Biosciences) and PE-conjugated anti CD107a mAb (clone 1D4B, eBioscience) were added to the cells. Splenocytes stimulated with PMA-ionomycin were used as the positive control, while cells without any stimulation were the negative control. After incubation, cells were first stained with PERCPCY™ 5.5-conjugated anti-CD3 mAb (Clone 145-2C11, TONBO), PE-CY7™-conjugated anti-CD8 mAb (clone 53-67, BD Biosciences), EFLUOR™ 450-conjugated anti-CD44 mAb (clone IM7, eBioscience), and APC eFluor 780-conjugated anti-CD62L mAb (clone Mel-14, eBioscience). Cells were then fixed and permeabilized using CYTOFIX/CYTOPERM™ solution (BD Biosciences), followed by staining with FITC-conjugated anti-IFNγ mAb (clone XMG 1.2, TONBO) and APC-conjugated anti-TNFα mAb (clone MP6-XT22, eBioscience). Samples were run using an LSR™ II (BD Biosciences) and analyzed using FLOWJO™ software X 10.0.7 (Tree Star, Ashland, Oreg.).
The following results are with respect to FIG. 11 to FIG. 11E, where Ifnar^−/− HLA-B*0702 transgenic mice were inoculated I.P. with 2×10^3 FFU of DENV2 strain S221 for 4 weeks. Naive mice (n=5) and DENV2 strain S221-immune mice (n=5) were challenged R.O. with 1×10^4 FU of ZIKV FSS13025 for three days, and the percentages of peptide-specific IFNγ^+ and/or TNFα^+ CD8^+ T cells were detected by ICS (FIG. 11A and FIG. 11B). […] Data were expressed as mean±SEM. *, P<0.05; **, P<0.01; Two-tailed ann-Whitney test. Black “*” indicates ZIKV-specific response while bold “*” represents ZIKV/DENV cross-reactive response. All positive peptides were grouped according the ZIKV specificity of immune response (FIG. 11E). Numbers in parentheses indicate the number of positive peptides in this group.

RPGAFCIKVL [FSS/MR-NS4B426-435]
SFC/10^6 CD8+ T cells, FSS13025 [1]: 1223 SFC/10^6 CD8+ T cells
SFC/10^6 CD8+ T cells, MR766 [1]: 1362 SFC/10^6 CD8+ T cells
immunodominance in IFNγ ELISPOT [1]: most immunodominant epitope
percentage of IFNγ-producing cells among antigen experienced (CD44+CD62L-) CD8+ T cells [2]: 1.63±0.76%
percentage of epitope-specific cells among antigen experienced (CD44+CD62L-) CD8+ T cells ([2]; mice immunized with the 4 ZIKV/DENV cross-reactive peptides): 1.52±0.42%
% IFNγ+ CD8+ T cells, FSS13025 [3]: (2.28%)
% IFNγ+ CD8+ T cells, MR766 [3]: (2.36%)
simultaneous IFNγ and TNFα secretion by peptide-stimulated CD8+ T cells ([3]; mice infected with either ZIKV FSS13025 or ZIKV MR766): simultaneously secreted both IFNγ and TNFα
SFC/10^6 CD8+ T cells, S221 [4]: 90 SFC/10^6 CD8+ T cells
% IFNγ+ CD8+ T cells, S221 [5]: (0.3%)
ZIKV/DENV cross-reactivity in DENV2-infected mice (IFNγ ELISPOT and IFNγ ICS) [5]: positive in both IFNγ ELISPOT and IFNγICS assays

RPRVCTKEEF [FSS/MR-NS5140-149]
SFC/10^6 CD8+ T cells, FSS13025 [1]: 162 SFC/10^6 CD8+ T cells
SFC/10^6 CD8+ T cells, MR766 [1]: 311 SFC/10^6 CD8+ T cells
% IFNγ+ CD8+ T cells, MR766 [3]: (0.24%)
% IFNγ+ CD8+ T cells, S221 [5]: 0.28%

SPRLDVAL [FSS/MR-NS2B68-75]
SFC/10^6 CD8+ T cells, FSS13025 [1]: 963 SFC/10^6 CD8+ T cells
SFC/10^6 CD8+ T cells, MR766 [1]: 993 SFC/10^6 CD8+ T cells
immunodominance in IFNγ ELISPOT [1]: immunodominant
percentage of IFNγ-producing cells among antigen experienced (CD44+CD62L-) CD8+ T cells [2]: 0.61±0.47%
% IFNγ+ CD8+ T cells, FSS13025 [3]: (0.56%)
% IFNγ+ CD8+ T cells, MR766 [3]: (0.77%)
simultaneous IFNγ and TNFα production by peptide-stimulated CD8+ T cells ([3]; ZIKV MR766-infected mice): stimulated simultaneous production of IFNγ and TNFα

VPRTDNITL [FSS-NS2A133-141]
SFC/10^6 CD8+ T cells, FSS13025 [1]: 786 SFC/10^6 CD8+ T cells
SFC/10^6 CD8+ T cells, MR766 [1]: 1182 SFC/10^6 CD8+ T cells
immunodominance in IFNγ ELISPOT [1]: immunodominant
percentage of IFNγ-producing cells among antigen experienced (CD44+CD62L-) CD8+ T cells [2]: 0.86%±0.71
% IFNγ+ CD8+ T cells, FSS13025 [3]: (0.9%)
% IFNγ+ CD8+ T cells, MR766 [3]: (1.07%)

VPTGRTTVV (VPTGRTTW) [FSS/MR-NS5539-546]
SFC/10^6 CD8+ T cells, MR766 [1]: 121 SFC/10^6 CD8+ T cells
% IFNγ+ CD8+ T cells, MR766 [3]: (0.25%)
SFC/10^6 CD8+ T cells, S221 [4]: 54 SFC/10^6 CD8+ T cells
% IFNγ+ CD8+ T cells, S221 [5]: (0.18%)
ZIKV/DENV cross-reactivity in DENV2-infected mice (IFNγ ELISPOT and IFNγ ICS) [5]: positive in both IFNγ ELISPOT and IFNγICS assays

VVMILGGFSM [MR-NS2A31-40]
SFC/10^6 CD8+ T cells, MR766 [1]: 106 SFC/10^6 CD8+ T cells
% IFNγ+ CD8+ T cells, MR766 [3]: (0.37%)
SFC/10^6 CD8+ T cells, S221 [4]: 51 SFC/10^6 CD8+ T cells
percentage of epitope-specific IFNγ-producing CD8+ T cells [6]: 0.42±0.12%
